In brackets after ≈: the same amount, converted by molar mass. Some results are limits rather than exact numbers.

For the data set the following is noted: buffer; pH 7.4; 200.0 µM.
Turning to `O=C(CC(Cc1ccccc1)C(=O)O)Nc1ccc(F)cc1` (stereo not drawn), the kinetic solubility (as a rule, solubility judged after dilution from a stock solution rather than from solid) is greater than 45.2 µg/mL.
Molecule `CCOc1ccc(S(=O)(=O)NCCC(=O)OCC(=O)NC(=O)c2cccn2C)cc1` yielded a kinetic solubility of 22.2 µg/mL (≈ 50.7 µM).
The same measure for `CCc1ccc(S(=O)(=O)NCc2cccnc2)cc1`: 31.8 µg/mL (≈ 115 µM).
On to `O=C(CSc1cccc(C(F)(F)F)c1)Nc1ccc(N2CCOCC2)cc1`, for which the solubility (kinetic) is 7.7 µg/mL (≈ 19.4 µM).
The molecule `CC(C)CN1CCNC(=O)C1CC(=O)N(C)CC1CCOCC1` (stereo not drawn) returned a kinetic solubility of 45.7 µg/mL (≈ 140 µM).
As for `CC1=CC(C)C(COC(=O)CN2CCCCC2)C(C)C1` (stereo not drawn), the figure is 8.4 µg/mL (≈ 30.1 µM); as for `CSc1ccccc1C(=O)C1CCCN(S(=O)(=O)N(C)C)C1` (stereo not drawn), greater than 51.4 µg/mL; as for `C=CCn1c(SCC#N)nnc1-c1ccc2ncccc2c1`, greater than 46.1 µg/mL.
As for `O=c1c2ccccc2nc(/C=C/c2ccc(O)cc2)n1-c1ccccc1O`, the figure is 5.2 µg/mL (≈ 14.6 µM); as for `Cc1ccc(N/C=C(\C#N)S(=O)(=O)c2ccccc2)cc1`, 0.7 µg/mL (≈ 2.35 µM).
On to `CCOC(=O)Cc1csc(NC(=O)COC(=O)/C=C/c2ccc(OC)cc2)n1`, for which the kinetic solubility was found to be 4.5 µg/mL (≈ 11.1 µM).
With `COc1ccc(/C=C2/C(=O)ON=C2C)cc1Cl`, the kinetic solubility is 23.6 µg/mL (≈ 93.8 µM).
As for `CN1CCC(N(C)C(=S)Nc2ccc(F)cc2)CC1`, the figure is greater than 42.2 µg/mL; as for `CCN(/C(N)=N/c1nc(C)cc(C)n1)c1ccccc1`, greater than 40.4 µg/mL; as for `Cc1ccc(C)c(OC(=O)c2cccnc2)c1`, 16.9 µg/mL (≈ 74.4 µM).
With `C/C(=N\Nc1ccc2nncn2n1)c1cccs1`, the solubility (kinetic) was greater than 38.7 µg/mL.
The same measure for `CCc1c(C)nc(N2CCN(c3ccccc3F)CC2)[nH]c1=O`: 5.6 µg/mL (≈ 17.7 µM); for `CCC(C)NC(=O)CN1c2cccc3cccc(c23)S1(=O)=O` (stereo not drawn): 35.5 µg/mL (≈ 111 µM).
As to `OC1CCC(Nc2ncnc3sccc23)CC1` (stereo not drawn), the solubility (kinetic) was greater than 37.4 µg/mL.
As for `CC(C)c1ccc(NC(=O)Cc2c(C(=O)O)n(C)c3ccccc23)cc1`, the solubility (kinetic) is greater than 52.6 µg/mL.
`N#C/C(=C\c1ccc(OCC(N)=O)cc1)S(=O)(=O)c1ccccc1` returned a kinetic solubility of 9.4 µg/mL (≈ 27.5 µM).
In turn, `CSc1ccccc1NC(=O)COC(=O)c1cnc(C)cn1` had a kinetic solubility greater than 47.6 µg/mL.
The same measure for `CC(=O)c1c(C)nc(Nc2nc3ccccc3s2)nc1C`: 0.2 µg/mL (≈ 0.67 µM); for `Cn1c(C(=O)O)cc2c(=O)n3ccccc3nc21`: greater than 36.5 µg/mL; for `CC(C)C1(CCNC(=O)c2cccs2)CCOC(C)(C)C1` (stereo not drawn): 42 µg/mL (≈ 136 µM).
The same measure for `Cc1cc(N2CCOCC2)nc2ccc(NC(=S)NC(C)C)cc12`: 4.6 µg/mL (≈ 13.4 µM); for `CC(C)c1ccc(/C=C2\SC(N3CCOCC3)=NC2=O)cc1`: 29.9 µg/mL (≈ 94.5 µM).
`CCC(C)NC(=O)c1cc(-c2cccs2)nc2ccccc12` (stereo not drawn) registered a kinetic solubility of 2.4 µg/mL (≈ 7.73 µM).
As for `Cc1[nH]c2ccccc2c1C(c1ccccn1)N1CCCC1` (stereo not drawn), the figure is 39.9 µg/mL (≈ 137 µM); as for `O=C(NCC(=O)N1CCCCCC1)c1ccc(Cl)cc1`, greater than 44.2 µg/mL; as for `CCOC(=O)c1ccc(NC(=O)NCc2cccnc2)cc1`, greater than 44.9 µg/mL.
`CNS(=O)(=O)c1ccc(N2CCCC2)c([N+](=O)[O-])c1` gave a kinetic solubility greater than 42.8 µg/mL.
Take `Cc1ccc(Nc2c(-c3ccc(C)o3)nc3ncccn23)cc1`: the solubility (kinetic) worked out at 1.9 µg/mL (≈ 6.24 µM).
As for `CN1C(=O)NC(c2ccc(O)cc2)C2=C1CN(c1ccc(O)cc1)C2=O` (stereo not drawn), the figure is greater than 52.7 µg/mL; as for `COc1ccc(C(=O)COC(=O)c2ccc(Cl)nc2)cc1OC`, 10.3 µg/mL (≈ 30.7 µM); as for `CSc1ccc(NC(N)=S)cc1`, greater than 29.7 µg/mL.
`O=c1ccc2cc3c([nH]c4ccc(Br)cc43)oc-2c1O`: the kinetic solubility is greater than 49.5 µg/mL.
As for `O=c1[nH]c2ccccc2nc1Cc1ccc(Cl)cc1`, the figure is 0.9 µg/mL (≈ 3.32 µM).
In the case of `Cc1cc(C)c2cc(C(=O)N3CCC(Cc4ccccc4)CC3)[nH]c2c1`, the kinetic solubility is less than 0.4 µg/mL.
As for `Cc1ccc(CC(=O)Nc2cc(C)ccn2)cc1`, the figure is greater than 36 µg/mL; as for `O=C(c1ccc(F)cc1)N(Cc1ccco1)C1CCS(=O)(=O)C1` (stereo not drawn), greater than 50.6 µg/mL.
The same measure for `CSCC[C@H](NC(=O)Nc1ccc(OC(F)(F)F)cc1)C(=O)O`: greater than 52.8 µg/mL.
Regarding `COc1ccc(CNC(=O)COC(=O)c2ccc(S(=O)(=O)NCc3ccco3)cc2)cc1`, the kinetic solubility came to 8 µg/mL (≈ 17.4 µM).
As for `CCC(CO)Nc1ncnc2onc(-c3ccc(F)cc3)c12` (stereo not drawn), the figure is greater than 45.3 µg/mL; as for `Cc1oc(C(C)(C)C)cc1C(=O)N1CCN(c2ccc(C(F)(F)F)cn2)CC1`, 6.4 µg/mL (≈ 16.2 µM).
For `Cc1ccc2oc(=O)n(Cc3ccc(F)cc3)c2c1`, the solubility (kinetic) came out at 2 µg/mL (≈ 7.77 µM).
As for `CCCCCOc1ccc(C(=O)OC(C)C(=O)NCc2ccco2)cc1` (stereo not drawn), the figure is 2.9 µg/mL (≈ 8.07 µM); as for `CC(C)(C)c1csc(Sc2ncccc2[N+](=O)[O-])n1`, 1.7 µg/mL (≈ 5.76 µM); as for `CC(C)(C)S(=O)(=O)Cc1nc(-c2ccc(Cl)c(Cl)c2)cs1`, less than 0.8 µg/mL.
As for `Cc1ccc(-c2csc3ncn(C(C)C(=O)O)c(=O)c23)cc1` (stereo not drawn), the figure is greater than 47.2 µg/mL.
The same measure for `CCC(Oc1ccccc1F)C(=O)NCCN1CCOCC1` (stereo not drawn): 44.3 µg/mL (≈ 143 µM); for `CN(C1(C)CCS(=O)(=O)C1)S(=O)(=O)c1ccc(F)cc1` (stereo not drawn): greater than 48.2 µg/mL; for `O=C(COc1ccccc1Cl)Nc1ccc2[nH]c(=O)[nH]c2c1`: 2 µg/mL (≈ 6.29 µM).
As for `Cc1cc(=O)[nH]c2c3ccccc3nn12`, the solubility (kinetic) was greater than 29.9 µg/mL.
Regarding `CCOc1ccccc1NC(=O)C1CCCN(S(C)(=O)=O)C1` (stereo not drawn), the kinetic solubility is greater than 49 µg/mL.
As for `Cc1ccc(N2C(=O)C(Cl)=C(N3CCCCCC3)C2=O)c(C)c1`, the figure is 4.5 µg/mL (≈ 13.5 µM); as for `Cc1cccc(C(=O)OCC(=O)NC(C)C2CC3CCC2C3)c1O` (stereo not drawn), 4.1 µg/mL (≈ 12.4 µM); as for `CSc1nc(Nc2ccc(Cl)cc2)c(C#N)c(=O)[nH]1`, 7.8 µg/mL (≈ 26.6 µM).
As for `O=C(CN1CCCCC1)Nc1ccccc1C(=O)NC1CC1`, the figure is greater than 45.2 µg/mL; as for `Cc1cc(C)nc(SCc2ccc(Br)cc2)n1`, 1.5 µg/mL (≈ 4.85 µM); as for `O=C(NCCc1ccc(F)cc1)C1CCCO1` (stereo not drawn), 27.6 µg/mL (≈ 116 µM).
On to `O=C(O)CN1c2cccc3cccc(c23)S1(=O)=O`, for which the solubility (kinetic) is 38.2 µg/mL (≈ 145 µM).
In the case of `NC(=O)C1CCN(C(=O)c2cccc3ccccc23)CC1`, the kinetic solubility is greater than 42.4 µg/mL.
For the molecule `COC(=O)CSc1ncnc2c1sc1nc3c(cc12)COC(C)(C)C3`, the kinetic solubility amounted to 1.6 µg/mL (≈ 4.26 µM).
Molecule `COC(=O)c1ccc(C2NCCc3cc(OC)c(OC)cc32)cc1` (stereo not drawn) displayed a kinetic solubility greater than 49.1 µg/mL.
The same measure for `O=C(Nc1ccccc1C(=O)Nc1ccncc1)c1ccc([N+](=O)[O-])cc1`: 11.2 µg/mL (≈ 30.9 µM).
The same measure for `Cc1ccccc1CN1C(=O)c2ccccc2Sc2ccc(C(=O)O)cc21`: 51.1 µg/mL (≈ 136 µM).
The same measure for `CC(C)CN(C(=O)CN(C)CC(=O)Nc1ccccc1C#N)c1c(N)n(CC(C)C)c(=O)[nH]c1=O`: greater than 72.5 µg/mL; for `COc1ccc(C(=O)CC(=O)C(=O)Nc2c(C)cccc2C)cc1`: 15.6 µg/mL (≈ 47.9 µM); for `C=CCn1c(C)c(C(=O)OCC)c2cc(O)c3ccccc3c21`: less than 0.7 µg/mL.
For `Cc1nc2nc(SCc3nc4ccccc4[nH]3)[nH]c2cc1Br`, the solubility (kinetic) was 1.1 µg/mL (≈ 2.94 µM).
The molecule `COc1cccc(NC(=O)c2nc(S(C)(=O)=O)ncc2Cl)c1` gave a kinetic solubility of 33.6 µg/mL (≈ 98.3 µM).
Molecule `O=C1OC(c2ccc3c(c2)OCO3)=N/C1=C\c1ccc(C(=O)O)cc1` showed a solubility (kinetic) greater than 50.6 µg/mL.
The same measure for `CC(SCc1cc(=O)n2c([nH]c3ccccc32)c1C#N)C(=O)O` (stereo not drawn): 21.7 µg/mL (≈ 66.3 µM).
As for `COc1ccccc1C(=O)Nc1sc2c(c1C(N)=O)CCCC2`, the figure is less than 0.4 µg/mL.
The same measure for `O=C(NCCNCc1cccs1)c1ccccc1F`: 37.6 µg/mL (≈ 135 µM); for `CCC(=Nc1ccccc1O)C1=C(O)CC(c2ccccc2)CC1=O` (stereo not drawn): 39.7 µg/mL (≈ 118 µM); for `Cc1cc(C)n2nc(C(=O)OCC(=O)Nc3ccc(C)c(F)c3)nc2n1`: greater than 53.6 µg/mL.
Take `O=C(NC1CCCCC1)c1ccc(N2CCOCC2)c([N+](=O)[O-])c1`: the kinetic solubility is greater than 50 µg/mL.
As for `O=S(=O)(NCCc1cccs1)c1ccc(Br)cc1`, the figure is 36.3 µg/mL (≈ 105 µM).
The same measure for `CC1CCN(C2CC(=O)N(c3ccc(Br)cc3Br)C2=O)CC1` (stereo not drawn): 40.4 µg/mL (≈ 93.9 µM).
In turn, `CC(=O)NCC(=O)NNC1CC(=O)N(c2cccc(Cl)c2)C1=O` (stereo not drawn) returned a kinetic solubility greater than 50.8 µg/mL.
With `Cc1cccc(N2CCN(S(=O)(=O)c3ccc(Cl)nc3)CC2C)c1` (stereo not drawn), the solubility (kinetic) is 3.6 µg/mL (≈ 9.84 µM).
`COc1ccc(C(=O)Nc2ccc3ccccc3n2)cc1OC` yielded a solubility (kinetic) of 0.7 µg/mL (≈ 2.27 µM).
The same measure for `O=C(COC(=O)CCC(=O)c1ccc(F)cc1)NCCc1ccccc1`: 49.1 µg/mL (≈ 137 µM); for `Cc1cc(OC(=O)c2ccccc2Cl)ccc1N1C(=O)CCC1=O`: 19 µg/mL (≈ 55.3 µM).
`COc1ccc(NC2c3ccccc3C(=O)N2c2ccccn2)cc1` (stereo not drawn) had a solubility (kinetic) of 34.1 µg/mL (≈ 103 µM).
As for `COc1ccc(Cl)cc1Nc1nc(-c2cccnc2)cs1`, the figure is less than 0.2 µg/mL.
Molecule `Cc1ccccc1NC(=O)Cn1cc(C(=O)C2CC2)c2ccccc21` gave a kinetic solubility of 0.7 µg/mL (≈ 2.11 µM).
In turn, `COc1ccc(OC)c(NC2=NCCS2)c1` returned a kinetic solubility greater than 35.7 µg/mL.
Molecule `CCOc1ncccc1C(=O)Nc1cc2c(cc1Br)OCCO2` gave a solubility (kinetic) of 6.5 µg/mL (≈ 17.1 µM).
Molecule `Cc1cccc(C)c1NC(=S)NC(C)(C)CO` gave a kinetic solubility greater than 37.9 µg/mL.
In turn, `Cc1ccc(NC(=S)N(C)C)cc1C` had a kinetic solubility of 29.4 µg/mL (≈ 141 µM).
With `COc1ccc(N(CC(=O)NCCSc2ccccc2)S(=O)(=O)c2ccccc2)c(OC)c1`, the kinetic solubility is 3.6 µg/mL (≈ 7.4 µM).
The same measure for `c1ccc2[nH]c(-c3cnco3)cc2c1`: 21.6 µg/mL (≈ 117 µM).
As for `Cc1noc(C)c1S(=O)(=O)Nc1cccc(C(F)(F)F)c1`, the figure is greater than 48 µg/mL; as for `CCOc1ccc(-n2c(C)c(C(C)=O)c3cc(O)ccc32)cc1`, less than 0.7 µg/mL.
As for `O=C(NC1CCCCCCC1)c1cccs1`, the figure is 22.5 µg/mL (≈ 94.8 µM); as for `Cc1ccc(C(=O)Nc2ccc3c(c2)OCCO3)c(Cl)c1`, 4.3 µg/mL (≈ 14.2 µM).
`N=c1oc2ccccc2cc1C(=O)NC1CCCCCC1`: the solubility (kinetic) came to 15.9 µg/mL (≈ 55.9 µM).
As for `COc1ccccc1N1CCN(C(=O)c2ccco2)CC1`, the figure is greater than 42.9 µg/mL; as for `O=C(CN1C(=O)NC(CCc2ccccc2)C1=O)Nc1cccc(Br)c1` (stereo not drawn), 5.2 µg/mL (≈ 12.5 µM); as for `CC(OC(=O)c1cccc(Cl)c1)C(=O)NC1CCCCC1C` (stereo not drawn), 8.7 µg/mL (≈ 26.9 µM).

Values taken from PubChem BioAssay AID1996.
